Here are results for two compounds from ChEMBL document CHEMBL3832023, “DailyMed|setid=c8b93fc1-472c-4890-8d02-2ee4f7175c22 | BUTALBITAL, ASPIRIN, CAFFEINE AND CODEINE PHOSPHATE- butalbital, aspirin,caffeine and codeine phosphate capsule|Jerome Stevens Pharmaceuticals”.

A short description of data set [1]: (§1) Pharmacokinetic parameters for aspirin and salicylic acid following oral administration of Aspirin,butalbital,caffeine phosphate capsules. The conditions noted are these: human, in vivo, dosed compound id 37, dosed compound name ASPIRIN, tissue Plasma; for half-life: dose 650 mg, route oral. On the set-up: dose 650 mg, route oral. The class given is ADME, organism-based.

Another data set has as its system Homo sapiens. Described as §1. The conditions noted are these: in vivo, po, dose 650 mg, dosed compound id 37, dosed compound name ASPIRIN, tissue Plasma. The arrangement: dose 650 mg, route oral. It counts as ADME, organism-based.

For orientation: half-life means how long it takes for the measured level to halve. For the compound `O=C(O)c1ccccc1O` [SALICYLIC ACID], in data set [1], the half-life is 180 min.
A word on the Cmax: it is the maximum level reached in the sampled fluid or tissue. In general, Tmax refers to the time at which the peak concentration occurs. With `CC(=O)Oc1ccccc1C(=O)O` [ASPIRIN], the Cmax in data set [1] (po, 650 mg) came out at 8800 ng/mL. This compound also came in with a half-life in data set [1] of 12 min. In addition, the Tmax in the data set on Homo sapiens came to 40 min.
